Experimental data as given in PubChem BioAssay (NCI).
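In this assay, cells in 96-well plates receive the compound at five concentrations for 48 hours. Endpoints are linearly interpolated between the surrounding concentrations. GI50 marks 50% less growth. TGI marks complete inhibition of growth.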

What was measured:
Test in all cases: DTP human tumour cell line panel, 48 h
SNB-78 CNS = tested on: SNB-78 CNS
UACC-62 melanoma = tested on: UACC-62 melanoma
M19-MEL melanoma = tested on: M19-MEL melanoma
HT29 colon = tested on: HT29 colon
SF-268 CNS = tested on: SF-268 CNS
OVCAR-8 ovarian = tested on: OVCAR-8 ovarian
K-562 leukemia = tested on: K-562 leukemia
EKVX NSCLC = tested on: EKVX NSCLC
A549 NSCLC = tested on: A549 NSCLC
SN12K1 renal = tested on: SN12K1 renal
LOX IMVI melanoma = tested on: LOX IMVI melanoma

## Cn1c(=O)c2nc(NCCO)cnc2n(C)c1=O
SNB-78 CNS
  TGI: > 100 µM
UACC-62 melanoma
  TGI: > 100 µM
M19-MEL melanoma
  TGI: > 100 µM
HT29 colon
  TGI: > 100 µM
SF-268 CNS
  TGI: > 100 µM
OVCAR-8 ovarian
  TGI: > 100 µM
K-562 leukemia
  TGI: > 100 µM
EKVX NSCLC
  TGI: > 100 µM
A549 NSCLC
  TGI: > 100 µM

## Cc1c(N=NN(C)C)cc[n+]([O-])c1C
SNB-78 CNS
  TGI: > 100 µM
SN12K1 renal
  TGI: > 100 µM
UACC-62 melanoma
  TGI: > 100 µM
M19-MEL melanoma
  TGI: > 100 µM
HT29 colon
  TGI: > 100 µM
SF-268 CNS
  TGI: > 100 µM
OVCAR-8 ovarian
  TGI: > 100 µM
K-562 leukemia
  TGI: > 100 µM
LOX IMVI melanoma
  TGI: > 100 µM
EKVX NSCLC
  TGI: > 100 µM
A549 NSCLC
  TGI: > 100 µM

## CCCCS(=O)CC(CO)NC(=O)/C=C/c1c(C)[nH]c(=O)[nH]c1=O (stereo not given)
SN12K1 renal
  TGI: 24.1 µM
UACC-62 melanoma
  TGI: 32 µM
M19-MEL melanoma
  TGI: 18.1 µM
HT29 colon
  TGI: 122 µM
SF-268 CNS
  TGI: 20.8 µM
OVCAR-8 ovarian
  TGI: 32.4 µM
K-562 leukemia
  TGI: 82.1 µM
LOX IMVI melanoma
  TGI: 40.9 µM
EKVX NSCLC
  TGI: 43 µM
A549 NSCLC
  TGI: 87.1 µM

## CC(C)[C@](O)(C(=O)OCC1=CCN2CC[C@@H](O)[C@@H]12)[C@H](C)O
SNB-78 CNS
  TGI: > 375 µM
SN12K1 renal
  TGI: > 375 µM
UACC-62 melanoma
  TGI: > 375 µM
M19-MEL melanoma
  TGI: > 256 µM
HT29 colon
  TGI: > 375 µM
SF-268 CNS
  TGI: > 375 µM
OVCAR-8 ovarian
  TGI: > 375 µM
K-562 leukemia
  TGI: > 375 µM
LOX IMVI melanoma
  TGI: > 174 µM
EKVX NSCLC
  TGI: > 375 µM
A549 NSCLC
  TGI: > 375 µM

## O=C(c1ccccc1)c1nn(-c2ccccc2)c2nc3nc(-c4ccccc4)cc(=O)n3nc12
UACC-62 melanoma
  GI50: 29.4 µM
  TGI: 89.2 µM
HT29 colon
  GI50: 24.7 µM
  TGI: 64.2 µM
OVCAR-8 ovarian
  GI50: 27.1 µM
  TGI: 84.8 µM
K-562 leukemia
  GI50: 21.2 µM
  TGI: 66.7 µM
LOX IMVI melanoma
  GI50: 25.8 µM
  TGI: 78.7 µM
EKVX NSCLC
  GI50: 22.2 µM
  TGI: 58.2 µM
A549 NSCLC
  GI50: 26.5 µM
  TGI: 81.4 µM

## COC(=O)C1C(O)C(C)C(O)OC1C(C)C(O)C(C)/C=C\C=C(/C)C(=O)Nc1c(C)c(OC(C)=O)c2c(c1O)C(=O)C(C)=C1OCOC(/C(C)=C/C(C)=O)=C12 (stereo not given)
SNB-78 CNS
  TGI: 24.9 µM
SN12K1 renal
  TGI: 25.6 µM
UACC-62 melanoma
  TGI: 31.1 µM
M19-MEL melanoma
  TGI: 26 µM
HT29 colon
  TGI: 26.5 µM
SF-268 CNS
  TGI: 33.1 µM
OVCAR-8 ovarian
  TGI: 30.7 µM
K-562 leukemia
  TGI: 51.1 µM
LOX IMVI melanoma
  TGI: 26.6 µM
EKVX NSCLC
  TGI: 20.5 µM
A549 NSCLC
  TGI: 35.3 µM

## O=C1CSC(C(N=Nc2ccc(Cl)cc2)c2nc3ccccc3[nH]2)=N1 (stereo not given)
UACC-62 melanoma
  TGI: > 100 µM
M19-MEL melanoma
  TGI: > 100 µM
HT29 colon
  TGI: > 100 µM
SF-268 CNS
  TGI: > 100 µM
OVCAR-8 ovarian
  TGI: > 100 µM
K-562 leukemia
  TGI: > 100 µM
EKVX NSCLC
  TGI: > 100 µM
A549 NSCLC
  TGI: > 100 µM

## C[C@]12CCc3sc(-c4cccc(F)c4)nc3C1=CC[C@@H]1[C@@H]2CC[C@]2(C)C(=O)CC[C@@H]12
UACC-62 melanoma
  GI50: 1.9 µM
  TGI: 5.7 µM
HT29 colon
  GI50: 2.69 µM
  TGI: > 100 µM
SF-268 CNS
  GI50: 3.15 µM
  TGI: 18.9 µM
OVCAR-8 ovarian
  GI50: 3.45 µM
  TGI: > 100 µM
K-562 leukemia
  GI50: 1.82 µM
  TGI: 9.08 µM
LOX IMVI melanoma
  GI50: 1.74 µM
  TGI: 3.36 µM
EKVX NSCLC
  GI50: 4.79 µM
  TGI: 87.2 µM
A549 NSCLC
  GI50: 3.95 µM
  TGI: 31.5 µM
